Measurements reported in ChEMBL document CHEMBL3603755 (J Med Chem, 2015).
One block for each molecule: values may come before it. Calls of active or inactive are those of the source. No cut-off for these calls is given here.

Tests used:
[1] = Inhibition of human SULU1
CAPAN-1 = assay: Antitumor activity against human Capan1 cells xenografted in athymic nu/nu mouse assessed as tumor growth inhibition at 50 mg/kg administered for 5 days; assay type: functional, organism-based

Structure (SMILES): NC(=O)c1cccc2c1C(=O)N(C1CCN(C3CCC(F)(F)CC3)CC1)C2
IC50 (MCF7): > 10 µM

IC50 [1]: > 10 µM
Structure (SMILES): NC(=O)c1cc(F)cc2c1C(=O)N(C1CCN(C3CCC(F)(F)CC3)CC1)C2

Structure (SMILES): Cn1nnc2c(C(N)=O)ncn2c1=O
TGI (CAPAN-1): inactive
